Measurements from ChEMBL document CHEMBL1201862, “PubChem BioAssay data set” (2004).
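Where inhibition never reached the appropriate level, the endpoint shown equals the highest concentration tested. Otherwise, values were interpolated linearly from a five-concentration, 48-hour dose response in 96-well plates. GI50 is the concentration that inhibits growth by half.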 Active and inactive are the calls of the source. Rule as the data show it: active = GI50 up to about 1.1 µM and inactive = higher.

Legend:
Assay in all cases: inhibition of tumour cell growth, NCI panel, 48 h
[1] = system: SK-OV-3
[2] = system: NCI-H460
[3] = system: COLO 205
[4] = system: IGROV-1
[5] = system: A549
[6] = system: SR
[7] = system: OVCAR-5
[8] = system: SK-MEL-5
[9] = system: PC-3
[10] = system: HOP-62
[11] = system: UACC-62
[12] = system: MCF7
[13] = system: CCRF-CEM
[14] = system: MDA-N
[15] = system: ACHN
[16] = system: TK-10
[17] = system: K562
[18] = system: OVCAR-8
[19] = system: HT-29
[20] = system: NCI-H226
[21] = system: MDA-MB-231
[22] = system: NCI-H23
[23] = system: M14
[24] = system: NCI-H522
[25] = system: HL-60
[26] = system: SF-295
[27] = system: DU-145
[28] = system: SF-539
[29] = system: Hs-578T
[30] = system: T47D
[31] = system: SK-MEL-2
[32] = system: SK-MEL-28
[33] = system: NCI/ADR-RES
[34] = system: SNB-19
[35] = system: SW-620
[36] = system: A498
[37] = system: OVCAR-4
[38] = system: RPMI-8226
[39] = system: UACC-257
[40] = system: SN12C
[41] = system: OVCAR-3
[42] = system: Malme-3M
[43] = system: UO-31
[44] = system: SNB-75
[45] = system: U-251
[46] = system: HCT-15
[47] = system: MOLT-4
[48] = system: KM12
[49] = system: BT-549
[50] = system: LOX IMVI
[51] = system: EKVX
[52] = system: CAKI-1
[53] = system: 786-0
[54] = system: MDA-MB-435
[55] = system: HCT-116
[56] = system: HOP-92
[57] = system: SF-268
[58] = system: HCC 2998
[59] = system: RXF 393

O=C1C2C=CC1C1C(=O)OC(=O)C21 (centres undefined)
GI50 [1]: > 100 µM (inactive)
GI50 [2]: > 100 µM (inactive)
GI50 [3]: > 100 µM (inactive)
GI50 [4]: > 100 µM (inactive)
GI50 [5]: > 100 µM (inactive)
GI50 [6]: > 100 µM (inactive)
GI50 [7]: > 100 µM (inactive)
GI50 [8]: > 100 µM (inactive)
GI50 [9]: > 100 µM (inactive)
GI50 [10]: > 100 µM (inactive)
GI50 [11]: > 100 µM (inactive)
GI50 [12]: > 100 µM (inactive)
GI50 [13]: > 100 µM (inactive)
GI50 [14]: > 100 µM (inactive)
GI50 [15]: > 100 µM (inactive)
GI50 [16]: > 100 µM (inactive)
GI50 [17]: > 100 µM (inactive)
GI50 [18]: > 100 µM (inactive)
GI50 [19]: > 100 µM (inactive)
GI50 [20]: > 100 µM (inactive)
GI50 [21]: > 100 µM (inactive)
GI50 [22]: > 100 µM (inactive)
GI50 [23]: > 100 µM (inactive)
GI50 [24]: > 100 µM (inactive)
GI50 [25]: > 100 µM (inactive)
GI50 [26]: > 100 µM (inactive)
GI50 [27]: > 100 µM (inactive)
GI50 [28]: > 100 µM (inactive)
GI50 [29]: > 100 µM (inactive)
GI50 [30]: > 100 µM (inactive)
GI50 [31]: > 100 µM (inactive)
GI50 [32]: > 100 µM (inactive)
GI50 [33]: > 100 µM (inactive)
GI50 [34]: > 100 µM (inactive)
GI50 [35]: > 100 µM (inactive)
GI50 [36]: > 100 µM (inactive)
GI50 [37]: > 100 µM (inactive)
GI50 [38]: > 100 µM (inactive)
GI50 [39]: > 100 µM (inactive)
GI50 [40]: > 100 µM (inactive)
GI50 [41]: > 100 µM (inactive)
GI50 [42]: > 100 µM (inactive)
GI50 [43]: > 100 µM (inactive)
GI50 [44]: > 100 µM (inactive)
GI50 [45]: > 100 µM (inactive)
GI50 [46]: > 100 µM
GI50 [47]: > 100 µM (inactive)
GI50 [48]: > 100 µM (inactive)
GI50 [49]: > 100 µM (inactive)
GI50 [50]: > 100 µM (inactive)
GI50 [51]: > 100 µM (inactive)
GI50 [52]: > 100 µM (inactive)
GI50 [53]: > 100 µM (inactive)
GI50 [54]: > 100 µM (inactive)
GI50 [55]: > 100 µM (inactive)
GI50 [56]: > 100 µM (inactive)
GI50 [57]: > 100 µM (inactive)
GI50 [58]: > 100 µM (inactive)

COc1cc2nc3c(=C(C#N)C#N)c4ccccc4n3c(=O)c2cc1OC
GI50 [1]: > 100 µM (inactive)
GI50 [2]: > 100 µM (inactive)
GI50 [3]: > 100 µM (inactive)
GI50 [4]: > 100 µM (inactive)
GI50 [5]: > 100 µM (inactive)
GI50 [6]: > 100 µM (inactive)
GI50 [7]: > 100 µM (inactive)
GI50 [8]: > 100 µM (inactive)
GI50 [9]: > 100 µM (inactive)
GI50 [10]: > 100 µM (inactive)
GI50 [11]: > 100 µM (inactive)
GI50 [12]: > 100 µM (inactive)
GI50 [13]: 32.4 µM (inactive)
GI50 [14]: > 100 µM (inactive)
GI50 [15]: > 100 µM (inactive)
GI50 [16]: > 100 µM (inactive)
GI50 [17]: > 100 µM (inactive)
GI50 [18]: > 100 µM (inactive)
GI50 [19]: > 100 µM (inactive)
GI50 [20]: > 100 µM (inactive)
GI50 [21]: > 100 µM (inactive)
GI50 [22]: > 100 µM (inactive)
GI50 [23]: > 100 µM (inactive)
GI50 [24]: > 100 µM (inactive)
GI50 [26]: > 100 µM (inactive)
GI50 [27]: > 100 µM (inactive)
GI50 [28]: > 100 µM (inactive)
GI50 [29]: 44.3 µM (inactive)
GI50 [30]: > 100 µM (inactive)
GI50 [31]: > 100 µM (inactive)
GI50 [33]: > 100 µM (inactive)
GI50 [34]: > 100 µM (inactive)
GI50 [35]: > 100 µM (inactive)
GI50 [36]: > 100 µM (inactive)
GI50 [37]: > 100 µM (inactive)
GI50 [38]: > 100 µM (inactive)
GI50 [39]: > 100 µM (inactive)
GI50 [40]: > 100 µM (inactive)
GI50 [41]: > 100 µM (inactive)
GI50 [43]: > 100 µM (inactive)
GI50 [44]: 41.6 µM (inactive)
GI50 [45]: > 100 µM (inactive)
GI50 [46]: > 100 µM
GI50 [47]: > 100 µM (inactive)
GI50 [48]: > 100 µM (inactive)
GI50 [49]: > 100 µM (inactive)
GI50 [50]: > 100 µM (inactive)
GI50 [51]: > 100 µM (inactive)
GI50 [59]: > 100 µM (inactive)
GI50 [52]: > 100 µM (inactive)
GI50 [53]: > 100 µM (inactive)
GI50 [54]: > 100 µM (inactive)
GI50 [55]: > 100 µM (inactive)
GI50 [56]: 36.5 µM (inactive)
GI50 [57]: 75.7 µM (inactive)
GI50 [58]: > 100 µM (inactive)
